# Tested on: urethra
# Assay: Intraluminal pressure of the urethra in the anaesthetised rabbit
# Format: in vivo
# Settings: i.v.; for Contraction of the urethra / Duration of effect (contraction of the urethra): female Japanese white rabbits, urethane anaesthesia, phenylephrine 30 μg/kg vs Example 2 10 μg/kg, phenylephrine = 100
# Experimental: Female Japanese white rabbits (weighing 3.0 to 3.5 kg) are anaesthetised with urethane (1 g/kg i.p.). A polyethylene cannula is inserted in the urinary bladder by means of a small incision. The changes in the intraluminal pressure are recorded by means of balloon in the urethra which contains about 1.5 ml of water at 37° C.
# [1] = rabbit, 10 μg/kg Example 2 vs 30 μg/kg phenylephrine, factor
SMILES,Contraction of the urethra,Duration of effect (contraction of the urethra),"duration of effect (contraction of the urethra), longer by a factor compared with phenylephrine [1]","potency with regard to the contraction of the urethra, higher by a factor compared with phenylephrine [1]"
"Cc1c(N(C)C)ccc(Br)c1N=C1NCCN1 [Example 2, 2-(6-Bromo-3-dimethylamino-2-methylphenylimino)imidazolidine]",273%,430%,4.3,2.73
"CNC[C@H](O)c1cccc(O)c1 [Phenylephrine, phenylephrine]",100%,100%,,
